These are literature values, as cited in patent US20110280855A1, “VITAMIN C COMPOSITIONS” (priority 2006, published 2011).

Data set [1] concerns Normal lung tissue of mice. The following applies: normal lung tissue of mice upon treatment.
In data set [2] the test system is murine neuroblastoma as well as melanoma cell lines. The following applies: in vitro; dependent on the source of tumor cells.

Regarding `O=C(O)CCCCC1CCSS1` (stereo not drawn) [alpha-lipoic acid], the increase in glutathione entry in data set [1] is given as “about 50%”. Moreover, in data set [2], the “increase of GSH content compared to untreated controls” value is given as 30-70%.
